Our source for the IC50 and activity values is US20230042881A1, “MODULATORS OF INTEGRATED STRESS RESPONSE PATHWAY” (Praxis Biotech LLC, priority 2021, published 2023).

Molecules are shown by their SMILES. Where two headings read alike, the source gives them in different places.

Test [1] concerns ATF4. Briefly: ATF4 expression inhibition assay (ATF4 5′UTR luciferase reporter, thapsigargin-stressed). It counts as cell-based. As to conditions: Homo sapiens, HEK-293T, read-out: ATF4 inhibition. How it is done:
The ATF4 reporter was prepared by fusing the human full length 5′UTR of ATF4 (NCBI Accession No. BC022088.2) upstream of the firefly luciferase coding sequence lacking the initiator methionine. The fused sequence was cloned into pLenti-EF1a-C-Myc-DDK-IRES-Puro cloning vector (Origen #PS100085) using standard methods.
HEK293T cells carrying the ATF4 luciferase reporter were plated on 96-well plates (Nunc) at 10,000 cells per well. Cells were treated two days after seeding with 100 nM thapsigargin (Tg) (Sigma-Aldrich #T9033) in the presence of different concentrations of selected compounds ranging from 0.1 nM to […]. Cells without treatment or cells treated with Tg alone were used as controls. Assay plates containing cells were incubated for 3 hours at 37° C.
Luciferase reactions were performed using Luciferase Assay System (Promega #E1501) as specified by the manufacturer. Luminescence was read with an integration time of 1 s and a gain of 110 using a Cytation-5 multi-mode microplate reader (BioTek).

Test [2] deals with Chinese hamster ovary (CHO) cells. Briefly: Protein synthesis assay (puromycin incorporation, Western blot). It counts as cell-based. As to conditions: Cricetulus griseus, read-out: % Protein synthesis relative to untreated (1 μM test compound). Here is the method: Chinese hamster ovary (CHO) cells were maintained at 37° C. and 5% CO2 in Dulbecco's Modified Eagle's Media (DMEM) supplemented with 10% fetal bovine serum, 2 mM L-glutamine, 100 U/ml penicillin, and 100 μg/ml streptomycin. After reaching 80% of confluence, cells were detached and seeded on 6 well plates in complete media, allowed to recover overnight and treated for 2 hours with 1 μM of the test compound (to assess protein synthesis levels in unstressed condition), or for 2 hours with 300 nM Tg in the presence of 1 μM of the test compound (to assess the recovery of protein synthesis in a stressed condition). Cells with Tg alone were used as controls.
After the 2 hours treatments, media were replaced by adding 10 μg/ml puromycin (Sigma Aldrich #P8833) in complete media for 30 min. Media were removed and cells were lysed with SDS-PAGE lysis buffer. Lysates were transferred to 1.5 ml tubes and sonicated for 3 min and total protein amount were quantified using BCA Protein Assay Kit (Pierce). Equal amount of protein (30 μg) was loaded on SDS-PAGE gels.
A HRP-conjugated secondary antibody (Rockland) was employed to detect immune-reactive bands using enhanced chemiluminescence (ECL Western Blotting Substrate, Pierce). Quantification of protein bands was done by densitometry using ImageJ software.
The percentage levels were normalized to the media alone condition, which correspond to 100% protein synthesis. […]

Setting [3] is: HEK293T cells carrying ATF4 luciferase reporter, 100 nM thapsigargin (Tg), 3 hours at 37° C.
[4] abbreviates: unstressed CHO cells (without Tg), 2 hours, 1 μM test compound, media alone = 100%.

For `O=C(Nc1ccc2cc(Cl)ccc2n1)C1CCN(CCCOc2ccc(Cl)c(F)c2)CC1` [Compound 10, 1-(3-(4-chloro-3-fluorophenoxy)propyl)-N-(6-chloroquinolin-2-yl)piperidine-4-carboxamide], in test [1] (setting [3]), the IC50 is 10 to 100 nM. In addition, the activity at 1 µM in test [2] (setting [4]) turned out to be 153%.
The like results for `O=C(Nc1ccc2cc(Cl)ccc2n1)[C@H]1CC[C@H](NCCOc2ccc(Cl)c(F)c2)CC1` [Compound 11, trans-4-(2-(4-chloro-3-fluorophenoxy)ethylamino)-N-(6-chloroquinolin-2-yl)cyclohexane-1-carboxamide] were, in that order, 100 to 1000 nM and 150%.
The like results for `O=C(NN1CCC(C(=O)Nc2ccc3cc(Cl)ccc3n2)CC1)c1cc2cc(Cl)ccc2o1` [Compound 12, 1-(5-chlorobenzofuran-2-carboxamido)-N-(6-chloroquinolin-2-yl)piperidine-4-carboxamide] were, in that order, < 10 nM and 121%.
For the molecule `O=C(COc1ccc(Cl)c(F)c1)N[C@H]1CC[C@H](C(=O)Nc2nc3cc(Cl)ccc3o2)CC1` [Compound 13, trans-4-(2-(4-chloro-3-fluorophenoxy)acetamido)-N-(5-chlorobenzo[d]oxazol-2-yl)cyclohexane-1-carboxamide], the IC50 in test [1] (3 h) was in the range of 10 to 100 nM. Also, the activity at 1 µM in test [2] (CHO, 2 h) came to 104%.
Take `O=C(COc1ccc(Cl)c(F)c1)N[C@H]1CC[C@H](C(=O)Nc2nc3cc(Cl)ccc3s2)CC1` [Compound 14, trans-4-(2-(4-chloro-3-fluorophenoxy)acetamido)-N-(5-chlorobenzo[d]thiazol-2-yl)cyclohexane-1-carboxamide]: the IC50 in test [1] (setting [3]) is < 10 nM. For the same molecule, in test [2] (setting [4]), the activity at 1 µM came out at 105%.
The like results for `O=C(COc1ccc(Cl)c(F)c1)NC1CCN(C(=O)Nc2ccc3cc(Cl)ccc3n2)CC1` [Compound 15, 4-(2-(4-chloro-3-fluorophenoxy)acetamido)-N-(6-chloroquinolin-2-yl)piperidine-1-carboxamide] were, in that order, 10 to 100 nM and 177%.
As to `O=C(COc1ccc(Cl)c(F)c1)NN1CCC(C(=O)Nc2ccc3cc(Cl)ccc3n2)CC1` [Compound 16, 1-(2-(4-chloro-3-fluorophenoxy)acetamido)-N-(6-chloroquinolin-2-yl)piperidine-4-carboxamide], the IC50 in test [1] (setting [3]) is < 10 nM. Besides, the activity at 1 µM in test [2] (setting [4]) was determined as 133%.
The like results for `O=C(Nc1ccc2cc(Cl)ccc2n1)[C@H]1CC[C@H](C(=O)Nc2ccc3cc(Cl)ccc3n2)CC1` [Compound 17, trans-N^1,N^4-bis(6-chloroquinolin-2-yl)cyclohexane-1,4-dicarboxamide] were, in that order, 10 to 100 nM and 110%.
The like results for `O=C(COc1ccc(Cl)cc1)NN1CCC(C(=O)Nc2ccc3cc(Cl)ccc3n2)CC1` [Compound 18, 1-(2-(4-chlorophenoxy)acetamido)-N-(6-chloroquinolin-2-yl)piperidine-4-carboxamide] were, in that order, < 10 nM and 75.6%.
Take `O=C(NN1CCC(C(=O)Nc2ccc3cc(Cl)ccc3n2)CC1)c1ccc2cc(Cl)ccc2n1` [Compound 19, 6-chloro-N-(4-((6-chloroquinolin-2-yl)carbamoyl)piperidin-1-yl)quinoline-2-carboxamide]: the IC50 in test [1] (setting [3]) is < 10 nM. Further, the activity at 1 µM in test [2] (setting [4]) was 122%.
Consider `O=C(COc1ccc(Cl)c(F)c1)N[C@H]1CC[C@H](C(=O)NCc2ccc3cc(Cl)ccc3n2)CC1` [Compound 22, trans-4-(2-(4-chloro-3-fluorophenoxy)acetamido)-N-((6-chloroquinolin-2-yl)methyl)cyclohexanecarboxamide], for which the IC50 in test [1] (setting [3]) was 10 to 100 nM. In addition, the activity at 1 µM in test [2] (setting [4]) was determined as 100%.
The like results for `O=C(CO[C@H]1C[C@@H](OC(F)(F)F)C1)N[C@H]1CC[C@H](C(=O)Nc2ccc3cc(Cl)ccc3n2)CC1` [Compound 24, trans-N-(6-chloroquinolin-2-yl)-4-(2-(cis-3-(trifluoromethoxy)cyclobutoxy)acetamido)cyclohexanecarboxamide] were, in that order, < 10 nM and 99.3%.
As for `O=C(CO[C@H]1C[C@@H](OC(F)(F)F)C1)NN1CCC(C(=O)Nc2ccc3cc(Cl)ccc3n2)CC1` [Compound 25, N-(6-chloroquinolin-2-yl)-1-(2-((1s, 3s)-3-(trifluoromethoxy)cyclobutoxy)acetamido)piperidine-4-carboxamide], the IC50 in test [1] (setting [3]) was < 10 nM. Also, in test [2] (setting [4]), the activity at 1 µM was determined as 96.1%.
The like results for `O=C(Nc1ccc2cc(Cl)ccc2n1)[C@H]1CC[C@H](C(=O)N[C@H]2C[C@@H](OC(F)(F)F)C2)CC1` [Compound 31, trans-N1-(6-chloroquinolin-2-yl)-N4-(cis-3-(trifluoromethoxy)cyclobutyl)cyclohexane-1,4-dicarboxamide] were, in that order, 10 to 100 nM and 88.3%.
The like results for `O=C(COc1ccc(C(F)(F)F)cc1)N[C@H]1CC[C@H](C(=O)Nc2ccc3cc(Cl)ccc3n2)CC1` [Compound 35, trans-N-(6-chloroquinolin-2-yl)-4-(2-(4-(trifluoromethyl)phenoxy)acetamido)cyclohexanecarboxamide] were, in that order, < 10 nM and 82.9%.
The like results for `O=C(COc1ccc(OC(F)(F)F)cc1)N[C@H]1CC[C@H](C(=O)Nc2ccc3cc(Cl)ccc3n2)CC1` [Compound 36, trans-N-(6-chloroquinolin-2-yl)-4-(2-(4-(trifluoromethoxy)phenoxy)acetamido)cyclohexanecarboxamide] were, in that order, < 10 nM and 160%.
Take `O=C(COc1ccc(Cl)c(F)c1)N[C@H]1CC[C@H](C(=O)NCc2cc3cc(Cl)ccc3o2)CC1` [Compound 39, trans-4-(2-(4-chloro-3-fluorophenoxy)acetamido)-N-((5-chlorobenzofuran-2-yl)methyl)cyclohexanecarboxamide]: in test [1] (setting [3]), the IC50 is 10 to 100 nM. Further, the activity at 1 µM in test [2] (setting [4]) came out at 170%.
The like results for `O=C(COc1ccc(Cl)c(F)c1)NN1CCC(C(=O)NCc2cc3cc(Cl)ccc3o2)CC1` [Compound 40, 1-(2-(4-chloro-3-fluorophenoxy)acetamido)-N-((5-chlorobenzofuran-2-yl)methyl)piperidine-4-carboxamide] were, in that order, < 10 nM and 121%.
Turning to `O=C(N[C@H]1CC[C@H](C(=O)NCc2cc3cc(Cl)ccc3o2)CC1)c1ccc2cc(Cl)ccc2n1` [Compound 43, 6-chloro-N-(trans-4-(((5-chlorobenzofuran-2-yl)methyl)carbamoyl)cyclohexyl)quinoline-2-carboxamide], in test [1] (setting [3]), the IC50 is < 10 nM. Further, in test [2] (setting [4]), the activity at 1 µM worked out at 85.2%.
As to `O=C(NN1CCC(C(=O)NCc2cc3cc(Cl)ccc3o2)CC1)c1ccc2cc(Cl)ccc2n1` [Compound 44, 6-chloro-N-(4-(((5-chlorobenzofuran-2-yl)methyl)carbamoyl)piperidin-1-yl)quinoline-2-carboxamide], in test [1] (setting [3]), the IC50 is < 10 nM. Also, the activity at 1 µM in test [2] (setting [4]) stood at 96.8%.
For `O=C(N[C@H]1CC[C@H](C(=O)NCc2cc3cc(Cl)ccc3o2)CC1)c1cc2cc(Cl)ccc2o1` [Compound 47, 5-chloro-N-(trans-4-(((5-chlorobenzofuran-2-yl)methyl)carbamoyl)cyclohexyl)benzofuran-2-carboxamide], in test [1] (setting [3]), the IC50 is < 10 nM. In test [2] (setting [4]), the activity at 1 µM is 103%.
The like results for `O=C(NN1CCC(C(=O)NCc2cc3cc(Cl)ccc3o2)CC1)c1cc2cc(Cl)ccc2o1` [Compound 48, 1-(5-chlorobenzofuran-2-carboxamido)-N-((5-chlorobenzofuran-2-yl)methyl)piperidine-4-carboxamide] were, in that order, < 10 nM and 109%.
With `O=C(N[C@H]1CC[C@H](C(=O)NCc2cc3cc(Cl)ccc3o2)CC1)C1CNc2cc(Cl)ccc2O1` (stereo partly drawn) [Compound 49, 6-chloro-N-(trans-4-(((5-chlorobenzofuran-2-yl)methyl)carbamoyl)cyclohexyl)-3,4-dihydro-2H-benzo[b][1,4]oxazine-2-carboxamide], the IC50 in test [1] (setting [3]) is 10 to 100 nM. Further, the activity at 1 µM in test [2] (setting [4]) turned out to be 122%.
The like results for `O=C(NCc1cc2cc(Cl)ccc2o1)C1CCN(NC(=O)C2CNc3cc(Cl)ccc3O2)CC1` (stereo not drawn) [Compound 50, 6-chloro-N-(4-(((5-chlorobenzofuran-2-yl)methyl)carbamoyl)piperidin-1-yl)-3,4-dihydro-2H-benzo[b][1,4]oxazine-2-carboxamide] were, in that order, 10 to 100 nM and 85.1%.
